Assays:
KRAS G12D = KRAS G12D (Homo sapiens, UniProt P01116, G12D); assay: GDP-GTP exchange assay (KRAS G12D); assay type: biochemical; settings: bodipy-GDP/GppNHp exchange with SOS1; 4 h pre-incubation, 2 h reaction;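 note: one dagger IC50 up to 100 nM and two daggers above 100 nM up to 1 μM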
Summary of the method: (§1)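 Bodipy-GDP-loaded KRAS (2.5 nM final) was pre-incubated 4 h at r.t. with inhibitor in Hepes pH 7.5 buffer with MgCl2, then exchange started with GppNHp (500 μM) and SOS1 (150 nM) final. Fluorescence (ex 485/em 520 nm) read after 2 h for G12D, 3 h for G12V; IC50 from four-parameter logistic fit.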

KRAS G12V = KRAS G12V (Homo sapiens, UniProt P01116, G12V); assay: GDP-GTP exchange assay (KRAS G12V); assay type: biochemical; settings: bodipy-GDP/GppNHp exchange with SOS1; 3 h incubation after GppNHp-SOS1;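 note: one dagger IC50 up to 100 nM and two daggers above 100 nM up to 1 μM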
Chain of KRAS G12V (P01116 1-188 isoform P01116-2 G12V): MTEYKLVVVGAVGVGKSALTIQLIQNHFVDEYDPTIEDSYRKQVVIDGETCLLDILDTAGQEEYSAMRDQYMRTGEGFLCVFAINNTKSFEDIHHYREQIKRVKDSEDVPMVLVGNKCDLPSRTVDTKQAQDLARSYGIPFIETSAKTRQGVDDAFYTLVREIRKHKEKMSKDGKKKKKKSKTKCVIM
Summary of the method: as §1

[1] = Caco2 assay (permeability, Papp A-B); assay type: in vitro ADME; settings: human, Caco-2, absorptive direction (A-B), 50 μM test compound, 4% BSA in receiver
Summary of the method: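 Caco-2 monolayers, 22-25 days on Transwells, TEER 300 Ω·cm^2, dosed apically with 50 μM compound in HBSS; basolateral HBSS with 4% BSA. 120 min at 37 °C, samples quantified by LCMS; Papp (A-B) from receiver-side cumulative flux slope, donor volume, surface area and initial donor amount.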

Chain of KRAS G12D (P01116 1-188 isoform P01116-2 G12D): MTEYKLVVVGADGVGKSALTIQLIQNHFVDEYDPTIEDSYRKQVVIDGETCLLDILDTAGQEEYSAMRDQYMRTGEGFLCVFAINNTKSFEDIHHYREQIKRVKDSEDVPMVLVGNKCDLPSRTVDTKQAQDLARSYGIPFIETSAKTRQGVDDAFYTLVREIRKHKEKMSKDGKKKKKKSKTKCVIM

G12D_exchange (KRAS_G12D exchange assay IC50) (KRAS G12D)	G12V_exchange (KRAS_G12V exchange assay IC50) (KRAS G12V)	Papp A→B at 120 min, 50 μM [1]	SMILES
†	†	≤ 0.5 ×10⁻⁶ cm/s	Cc1nc2c(F)c(-c3cccc(Cl)c3Cl)c(CCC#N)cc2c2c1cc([C@H]1[C@H]3C[C@H](CN(c4ncc(C(F)(F)F)cn4)C3)N1C(=O)C1CC1)n2[C@H]1[C@H]2CN[C@@H]1C2 (atropisomer, axis not shown; (Ra)) [Example 41, 3-((Ra)-1-((1R,4R,5S)-2-azabicyclo[2.1.1]hexan-5-yl)-2-((1S,5R,7R)-6-(cyclopropanecarbonyl)-3-(5-(trifluoromethyl)pyrimidin-2-yl)-3,6-diazabicyclo[3.2.1]octan-7-yl)-7-(2,3-dichlorophenyl)-6-fluoro-4-methyl-1H-pyrrolo[3,2-c]quinolin-8-yl)propanenitrile]
†	†	≤ 0.5 ×10⁻⁶ cm/s	COc1ccnc(N2C[C@@H]3C[C@H](C2)N(C(=O)C2CC2)[C@H]3c2cc3c(C)nc4c(F)c(-c5cccc(Cl)c5Cl)c(CCC#N)cc4c3n2[C@H]2[C@H]3CN[C@@H]2C3)n1 (atropisomer, axis not shown; (Ra)) [Example 42, 3-((Ra)-1-((1R,4R,5S)-2-azabicyclo[2.1.1]hexan-5-yl)-2-((1S,5R,7R)-6-(cyclopropanecarbonyl)-3-(4-methoxypyrimidin-2-yl)-3,6-diazabicyclo[3.2.1]octan-7-yl)-7-(2,3-dichlorophenyl)-6-fluoro-4-methyl-1H-pyrrolo[3,2-c]quinolin-8-yl)propanenitrile]
†	†	≤ 0.5 ×10⁻⁶ cm/s	Cc1nc2c(F)c(-c3cccc(Cl)c3Cl)c(CCC#N)cc2c2c1cc([C@H]1[C@H]3C[C@H](CN(c4nccc(C(F)(F)F)n4)C3)N1C(=O)C1CC1)n2[C@H]1[C@H]2CN[C@@H]1C2 (atropisomer, axis not shown; (Ra)) [Example 43, 3-((Ra)-1-((1R,4R,5S)-2-azabicyclo[2.1.1]hexan-5-yl)-2-((1S,5R,7R)-6-(cyclopropanecarbonyl)-3-(4-(trifluoromethyl)pyrimidin-2-yl)-3,6-diazabicyclo[3.2.1]octan-7-yl)-7-(2,3-dichlorophenyl)-6-fluoro-4-methyl-1H-pyrrolo[3,2-c]quinolin-8-yl)propanenitrile]
†	†	≤ 0.5 ×10⁻⁶ cm/s	Cc1nc2c(F)c(-c3cccc(Cl)c3Cl)c(CCC#N)cc2c2c1cc([C@H]1[C@H]3C[C@H](CN(c4cnc(C(F)(F)F)cn4)C3)N1C(=O)C1CC1)n2[C@H]1[C@H]2CN[C@@H]1C2 (atropisomer, axis not shown; (Ra)) [Example 44, 3-((Ra)-1-((1R,4R,5S)-2-azabicyclo[2.1.1]hexan-5-yl)-2-((1S,5R,7R)-6-(cyclopropanecarbonyl)-3-(5-(trifluoromethyl)pyrazin-2-yl)-3,6-diazabicyclo[3.2.1]octan-7-yl)-7-(2,3-dichlorophenyl)-6-fluoro-4-methyl-1H-pyrrolo[3,2-c]quinolin-8-yl)propanenitrile]
†	†	≤ 0.5 ×10⁻⁶ cm/s	Cc1nc2c(F)c(-c3cccc(Cl)c3Cl)c(CCC#N)cc2c2c1cc([C@H]1[C@H]3C[C@H](CN(c4ncc(OC(F)F)cn4)C3)N1C(=O)C1CC1)n2[C@H]1[C@H]2CN[C@@H]1C2 (atropisomer, axis not shown; (Ra)) [Example 45, 3-((Ra)-1-((1R,4R,5S)-2-azabicyclo[2.1.1]hexan-5-yl)-2-((1S,5R,7R)-6-(cyclopropanecarbonyl)-3-(5-(difluoromethoxy)pyrimidin-2-yl)-3,6-diazabicyclo[3.2.1]octan-7-yl)-7-(2,3-dichlorophenyl)-6-fluoro-4-methyl-1H-pyrrolo[3,2-c]quinolin-8-yl)propanenitrile]
†	†	≤ 0.5 ×10⁻⁶ cm/s	Cc1nc2c(F)c(-c3cccc(Cl)c3Cl)c(CCC#N)cc2c2c1cc([C@H]1[C@H]3C[C@H](CN(c4ncccc4F)C3)N1C(=O)C1CC1)n2[C@H]1[C@H]2CN[C@@H]1C2 (atropisomer, axis not shown; (Ra)) [Example 46, 3-((Ra)-1-((1R,4R,5S)-2-azabicyclo[2.1.1]hexan-5-yl)-2-((1S,5R,7R)-6-(cyclopropanecarbonyl)-3-(3-fluoropyridin-2-yl)-3,6-diazabicyclo[3.2.1]octan-7-yl)-7-(2,3-dichlorophenyl)-6-fluoro-4-methyl-1H-pyrrolo[3,2-c]quinolin-8-yl)propanenitrile]
††	†	≤ 0.5 ×10⁻⁶ cm/s	Cc1nc2c(F)c(-c3cccc(Cl)c3Cl)c(CCC#N)cc2c2c1cc([C@H]1[C@H]3C[C@H](CN(c4ncccc4C#N)C3)N1C(=O)C1CC1)n2[C@H]1[C@H]2CN[C@@H]1C2 (atropisomer, axis not shown; (Ra)) [Example 47, 2-((1S,5R,7R)-7-((Ra)-1-((1R,4R,5S)-2-azabicyclo[2.1.1]hexan-5-yl)-8-(2-cyanoethyl)-7-(2,3-dichlorophenyl)-6-fluoro-4-methyl-1H-pyrrolo[3,2-c]quinolin-2-yl)-6-(cyclopropanecarbonyl)-3,6-diazabicyclo[3.2.1]octan-3-yl)nicotinonitrile]
†	†	0.5 to 1 ×10⁻⁶ cm/s	Cc1cccnc1N1C[C@@H]2C[C@H](C1)N(C(=O)C1CC1)[C@H]2c1cc2c(C)nc3c(F)c(-c4cccc(Cl)c4Cl)c(CCC#N)cc3c2n1[C@H]1[C@H]2CN[C@@H]1C2 (atropisomer, axis not shown; (Ra)) [Example 48, 3-((Ra)-1-((1R,4R,5S)-2-azabicyclo[2.1.1]hexan-5-yl)-2-((1S,5R,7R)-6-(cyclopropanecarbonyl)-3-(3-methylpyridin-2-yl)-3,6-diazabicyclo[3.2.1]octan-7-yl)-7-(2,3-dichlorophenyl)-6-fluoro-4-methyl-1H-pyrrolo[3,2-c]quinolin-8-yl)propanenitrile]
†	†	≤ 0.5 ×10⁻⁶ cm/s	COc1cccnc1N1C[C@@H]2C[C@H](C1)N(C(=O)C1CC1)[C@H]2c1cc2c(C)nc3c(F)c(-c4cccc(Cl)c4Cl)c(CCC#N)cc3c2n1[C@H]1[C@H]2CN[C@@H]1C2 (atropisomer, axis not shown; (Ra)) [Example 49, 3-((Ra)-1-((1R,4R,5S)-2-azabicyclo[2.1.1]hexan-5-yl)-2-((1S,5R,7R)-6-(cyclopropanecarbonyl)-3-(3-methoxypyridin-2-yl)-3,6-diazabicyclo[3.2.1]octan-7-yl)-7-(2,3-dichlorophenyl)-6-fluoro-4-methyl-1H-pyrrolo[3,2-c]quinolin-8-yl)propanenitrile]

From patent US20250195536A1, “BICYCLOOCTANE KRAS INHIBITORS” (Incyte Corporation, priority 2023, published 2025)
